In PubChem BioAssay (NCI):
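Briefly, cells in 96-well plates were exposed to five compound concentrations for 48 h, and endpoints were estimated by linear interpolation. TGI is the concentration that stops growth completely.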

What was measured:
Assay in all cases: inhibition of tumour cell growth, NCI panel, 48 h
[1] = system: 786-0 renal
[2] = system: A498 renal
[3] = system: A549 NSCLC
[4] = system: CAKI-1 renal
[5] = system: CCRF-CEM leukemia
[6] = system: COLO 205 colon
[7] = system: DLD-1 colon
[8] = system: DMS 114 small cell lung
[9] = system: DMS 273 small cell lung
[10] = system: EKVX NSCLC
[11] = system: HCC-2998 colon
[12] = system: HCT-116 colon
[13] = system: HCT-15 colon
[14] = system: HL-60(TB) leukemia
[15] = system: HOP-18 NSCLC
[16] = system: HOP-92 NSCLC
[17] = system: HT29 colon
[18] = system: IGROV1 ovarian
[19] = system: K-562 leukemia
[20] = system: KM12 colon
[21] = system: LOX IMVI melanoma
[22] = system: LXFL 529 NSCLC
[23] = system: M14 melanoma
[24] = system: M19-MEL melanoma
[25] = system: MALME-3M melanoma
[26] = system: MOLT-4 leukemia
[27] = system: NCI-H226 lung
[28] = system: NCI-H23 lung
[29] = system: NCI-H460 lung
[30] = system: NCI-H522 lung
[31] = system: OVCAR-3 ovarian
[32] = system: OVCAR-4 ovarian
[33] = system: OVCAR-8 ovarian
[34] = system: RPMI-8226 leukemia
[35] = system: RXF 393 renal
[36] = system: RXF-631 renal
[37] = system: SF-268 CNS
[38] = system: SF-295 CNS
[39] = system: SF-539 CNS
[40] = system: SK-MEL-2 melanoma
[41] = system: SK-MEL-28 melanoma
[42] = system: SK-MEL-5 melanoma
[43] = system: SK-OV-3 ovarian
[44] = system: SN12C renal
[45] = system: SNB-19 CNS
[46] = system: SNB-75 CNS
[47] = system: SNB-78 CNS
[48] = system: SW-620 colon
[49] = system: TK-10 renal
[50] = system: UACC-257 melanoma
[51] = system: UACC-62 melanoma
[52] = system: UO-31 renal
[53] = system: ACHN renal
[54] = system: HOP-62 NSCLC
[55] = system: KM20L2 colon
[56] = system: OVCAR-5 ovarian
[57] = system: XF 498 CNS
[58] = system: SR leukemia
[59] = system: U251 CNS

Nc1ncnc2c1ncn2CC(O)CO (stereo not drawn)
TGI [1]: > 100 µM
TGI [2]: > 100 µM
TGI [3]: > 100 µM
TGI [4]: > 100 µM
TGI [5]: > 100 µM
TGI [6]: > 100 µM
TGI [7]: > 100 µM
TGI [8]: > 100 µM
TGI [9]: > 100 µM
TGI [10]: > 100 µM
TGI [11]: > 100 µM
TGI [12]: > 100 µM
TGI [13]: > 100 µM
TGI [14]: > 100 µM
TGI [15]: > 100 µM
TGI [16]: > 100 µM
TGI [17]: > 100 µM
TGI [18]: > 100 µM
TGI [19]: > 100 µM
TGI [20]: > 100 µM
TGI [21]: > 100 µM
TGI [22]: > 100 µM
TGI [23]: > 100 µM
TGI [24]: > 100 µM
TGI [25]: > 100 µM
TGI [26]: > 100 µM
TGI [27]: > 100 µM
TGI [28]: > 100 µM
TGI [29]: > 100 µM
TGI [30]: > 100 µM
TGI [31]: > 100 µM
TGI [32]: > 100 µM
TGI [33]: > 100 µM
TGI [34]: > 100 µM
TGI [35]: > 100 µM
TGI [36]: > 100 µM
TGI [37]: > 100 µM
TGI [38]: > 100 µM
TGI [39]: > 100 µM
TGI [40]: > 100 µM
TGI [41]: > 100 µM
TGI [42]: > 100 µM
TGI [43]: > 100 µM
TGI [44]: > 100 µM
TGI [45]: > 100 µM
TGI [46]: > 100 µM
TGI [47]: > 100 µM
TGI [48]: > 100 µM
TGI [49]: > 100 µM
TGI [50]: > 100 µM
TGI [51]: > 100 µM
TGI [52]: > 100 µM

FC(F)(F)c1cc(C2SCc3nc4ccccc4n32)cc(C(F)(F)F)c1 (stereo not drawn)
TGI [1]: > 100 µM
TGI [2]: > 100 µM
TGI [53]: > 100 µM
TGI [4]: > 100 µM
TGI [5]: > 100 µM
TGI [9]: > 100 µM
TGI [14]: > 100 µM
TGI [54]: > 100 µM
TGI [16]: > 100 µM
TGI [17]: > 100 µM
TGI [18]: > 100 µM
TGI [19]: > 100 µM
TGI [20]: > 100 µM
TGI [55]: > 100 µM
TGI [22]: > 100 µM
TGI [25]: > 100 µM
TGI [26]: > 100 µM
TGI [27]: > 100 µM
TGI [32]: > 100 µM
TGI [56]: > 100 µM
TGI [33]: > 100 µM
TGI [35]: > 100 µM
TGI [36]: > 100 µM
TGI [37]: > 100 µM
TGI [38]: > 100 µM
TGI [39]: > 100 µM
TGI [43]: > 100 µM
TGI [44]: > 100 µM
TGI [45]: > 100 µM
TGI [47]: > 100 µM
TGI [49]: > 100 µM
TGI [50]: > 100 µM
TGI [51]: > 100 µM
TGI [52]: > 100 µM
TGI [57]: 35.6 µM

CSC(=NCCc1c[nH]c2ccccc12)NC#N
TGI [1]: > 100 µM
TGI [3]: > 100 µM
TGI [53]: > 100 µM
TGI [5]: > 100 µM
TGI [6]: > 100 µM
TGI [7]: > 100 µM
TGI [8]: > 100 µM
TGI [9]: > 100 µM
TGI [10]: > 100 µM
TGI [11]: > 100 µM
TGI [12]: > 100 µM
TGI [13]: > 100 µM
TGI [14]: > 100 µM
TGI [54]: > 100 µM
TGI [17]: > 100 µM
TGI [18]: > 100 µM
TGI [19]: > 100 µM
TGI [20]: > 100 µM
TGI [55]: > 100 µM
TGI [21]: > 100 µM
TGI [22]: > 100 µM
TGI [23]: > 100 µM
TGI [24]: > 100 µM
TGI [26]: > 100 µM
TGI [27]: > 100 µM
TGI [28]: > 100 µM
TGI [29]: > 100 µM
TGI [31]: > 100 µM
TGI [32]: > 100 µM
TGI [56]: > 100 µM
TGI [33]: > 100 µM
TGI [34]: > 100 µM
TGI [35]: > 100 µM
TGI [37]: > 100 µM
TGI [38]: > 100 µM
TGI [39]: > 100 µM
TGI [41]: > 100 µM
TGI [42]: > 100 µM
TGI [43]: > 100 µM
TGI [44]: > 100 µM
TGI [45]: > 100 µM
TGI [46]: > 100 µM
TGI [47]: > 100 µM
TGI [58]: > 100 µM
TGI [48]: > 100 µM
TGI [49]: > 100 µM
TGI [59]: > 100 µM
TGI [50]: > 100 µM
TGI [51]: > 100 µM
TGI [52]: > 100 µM
TGI [57]: > 100 µM
